In patent US9657071B2, “IgE peptide vaccine” (NIPPON ZENYAKU KOGYO CO., LTD., priority 2012, dated 2017):

Experiments:
Der f 2-specific IgE = assay: Prevention experiment in rats: Der f 2-specific IgE (ELISA); type: in vivo; settings: rat, 50 μg three times, then Der f 2 + alum
Experimental: Der f 2 was prepared at 1 μg/mL in an immobilization buffer (0.05 M carbonate buffer, pH 9.6), then added at a concentration of 100 μL/well to an ELISA plate, and left overnight at 4° C. The immobilization plate was washed once with PBS-T (0.05%). A blocking solution (4× Block Ace, Snow Brand Milk Products Co., Ltd.; UK-B80) was added thereto at a concentration of 200 μL/well. The plate was blocked by incubation at 37° C. for 1.5 hours. The serum was diluted 20-fold with a diluent (PBS-T:Block Ace=9:1) and used. The plate was reacted with the serum at 37° C. for 1.5 hours and washed three times with PBS-T (0.05%). An anti-rat IgE antibody (Rabbit anti-Rat IgE HRP; Invitrogen Corp., 61-9520) was diluted 1000-fold with a diluent and added thereto as a secondary antibody at a concentration of 100 μL/well. After reaction at 37° C. for 1.5 hours, the plate was washed three times with PBS-T (0.05%). […] Then, the measurement was performed using a plate reader (Bio-Rad Laboratories, Inc.; model 680) (dual: measurement: 450 nm, control: 570 nm). […]
Blood was collected every 2 weeks from the administer start date. […] Serum was collected, and an IgG antibody against dog IgE was evaluated by ELISA (FIG. 16). […]

human IgE = assay: Test using dog (Part 2): IgG antibody against human IgE (ELISA); type: in vivo; settings: healthy adult beagles 24 months old, s.c. 1 mg five times at 2-week intervals
Experimental: Human IgE (Athens Research And Technology, Inc.; IgE, human Myeloma Plasma) was prepared at 1 μg/mL in an immobilization buffer (0.05 M carbonate buffer, pH 9.6), then added at a concentration of 100 μL/well to an ELISA plate, and left overnight at 4° C. The immobilization plate was washed once with PBS-T (0.05%). A blocking solution (4× Block Ace, Snow Brand Milk Products Co., Ltd.; UK-B80) was added thereto at a concentration of 200 μL/well. The plate was blocked by incubation at 37° C. for 1.5 hours. The serum was diluted 1000-fold with a diluent (PBS-T:Block Ace=9:1) and used. The plate was reacted with the serum at 37° C. for 1.5 hours and washed three times with PBS-T (0.05%). An anti-dog IgG antibody (Sheep anti-Dog IgG HRP, Bethyl Laboratories, Inc.; A40-118P) was diluted 2000-fold with a diluent and added thereto as a secondary antibody at a concentration of 100 μL/well. After reaction at 37° C. for 1.5 hours, the plate was washed three times with PBS-T (0.05%). A substrate solution (citrate buffer supplemented with one TMBZ tablet (Sigma-Aldrich Corp.; T-3405) and further supplemented, immediately before use, with 2 μL of 30% H2O2) was added at a concentration of 100 μL/well to the plate and reacted therewith for 10 minutes. […] Then, the measurement was performed using a plate reader (Bio-Rad Laboratories, Inc.; model 680) (dual: measurement: 450 nm, control: 570 nm). […]

## KKTSVSASQWYTKHHNNATT (listed as Mus musculus) [M4-7-11]
Der f 2-specific IgE; intravenous
  Der f 2-specific IgE production compared with the control group (saline): inhibition of IgE production was confirmed
Der f 2-specific IgE; subcutaneous (group 2)
  Der f 2-specific IgE production compared with the control group (saline): inhibition of IgE production was remarkably confirmed
Human IgE
  level of the IgG antibody against IgE: confirmed to elevate
